Reference: patent US20240300943A1, “NOVEL SALTS OF HETEROCYCLIC COMPOUND AS PROTEIN KINASE INHIBITOR AND USES THEREOF” (HK INNO.N CORPORATION, priority 2021, published 2024)

How the values were obtained:
JAK2 = JAK2 (Homo sapiens, UniProt O60674); assay: ADP-Glo JAK2 kinase assay; type: biochemical; details: read-out: IC50, In vitro enzyme JAK2
Description: 10 mM of Compound 1 was diluted in DMSO to prepare samples at four concentrations (5,000 nM, 500 nM, 50 nM and 5 nM). 10 mM of ATP was diluted at 1/40 in 1× kinase buffer to make a preparation. 1 mg/mL of IGFIRtide was used as a stock solution. 100 ng/μL of JAK2 enzyme was diluted at 1/20 in 1× kinase buffer to make a preparation. 1 μL of ATP, 1 μL of IGFIRtide, and 1 μL of Compound 1 prepared as above were mixed, after which 2 μL of JAK2 enzyme was finally added and reacted at 30° C. for 40 minutes. At this time, a tube without JAK2 enzyme was prepared as a blank and a tube without Compound 1 was prepared as a positive control group together (a final concentration of samples was 1,000 nM, 100 nM, 10 nM, and 1 nM).
(§1) Then, 5 μL of ADP-glo was added to each tube and reacted at 30° C. for 40 minutes, after which 10 μL of kinase detection reagent was added thereto and reacted at room temperature for 15 minutes. After 18 μL of the reactant was transferred to a 384 well plate, luminescence was measured using a plate reader.

JAK1 = JAK1 (Homo sapiens, UniProt P23458); assay: ADP-Glo JAK1 kinase assay; type: biochemical
JAK1, sequence (P23458 whole entry, species assumed): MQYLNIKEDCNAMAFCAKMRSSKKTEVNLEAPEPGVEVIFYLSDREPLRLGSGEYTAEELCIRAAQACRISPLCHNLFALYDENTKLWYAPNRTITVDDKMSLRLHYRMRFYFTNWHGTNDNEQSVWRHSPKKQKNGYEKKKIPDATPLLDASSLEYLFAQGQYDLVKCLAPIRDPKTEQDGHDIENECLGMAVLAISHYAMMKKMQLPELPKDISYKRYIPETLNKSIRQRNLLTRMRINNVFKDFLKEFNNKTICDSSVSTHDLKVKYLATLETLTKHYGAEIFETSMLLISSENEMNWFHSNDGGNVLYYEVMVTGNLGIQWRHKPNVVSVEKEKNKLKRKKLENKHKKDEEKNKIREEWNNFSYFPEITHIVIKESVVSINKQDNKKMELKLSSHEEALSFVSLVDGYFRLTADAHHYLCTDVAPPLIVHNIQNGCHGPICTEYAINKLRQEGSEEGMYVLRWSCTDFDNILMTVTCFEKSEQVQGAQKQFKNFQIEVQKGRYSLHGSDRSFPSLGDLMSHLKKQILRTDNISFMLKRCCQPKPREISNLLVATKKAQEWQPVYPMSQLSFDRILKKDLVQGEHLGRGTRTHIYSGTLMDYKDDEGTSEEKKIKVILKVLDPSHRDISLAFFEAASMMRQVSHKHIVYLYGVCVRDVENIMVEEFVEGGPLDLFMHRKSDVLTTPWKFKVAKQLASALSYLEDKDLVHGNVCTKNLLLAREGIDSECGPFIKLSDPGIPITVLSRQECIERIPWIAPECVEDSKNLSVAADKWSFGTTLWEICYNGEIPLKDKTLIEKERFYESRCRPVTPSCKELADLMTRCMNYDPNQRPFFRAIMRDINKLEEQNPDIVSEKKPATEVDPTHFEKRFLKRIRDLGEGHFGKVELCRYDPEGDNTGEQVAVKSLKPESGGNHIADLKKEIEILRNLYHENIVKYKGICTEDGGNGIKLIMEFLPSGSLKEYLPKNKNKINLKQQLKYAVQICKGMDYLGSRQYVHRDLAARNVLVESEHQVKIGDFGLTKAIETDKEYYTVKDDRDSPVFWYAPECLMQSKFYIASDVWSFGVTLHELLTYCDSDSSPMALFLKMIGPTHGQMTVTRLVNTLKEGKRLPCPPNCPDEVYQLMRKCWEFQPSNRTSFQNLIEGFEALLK
Description: 10 mM of (S)—N-(4-(1-(2-cyanoacetyl)-3-methyl-1,2,3,6-tetrahydropyridin-4-yl)-1H-pyrrolo[2,3-b]pyridin-6-yl)cyclopropanecarboxamide (hereinafter, referred to as Compound 1), which is the heterocyclic compound represented by formula II obtained according to Preparation Example 1, was diluted in DMSO to prepare samples at five concentrations (1,000 nM, 200 nM, 40 nM, 8 nM, and […]). 10 mM of ATP and 10 mg/mL of insulin receptor substrate (IRS) were diluted at 1/40 and 1/50, respectively, in 1× kinase buffer. In addition, 222 ng/μL of JAK1 enzyme was diluted at ⅛ in 1× kinase buffer to make a preparation. 1 μL of ATP, 1 μL of IRS, and 1 μL of Compound 1 prepared as above were mixed, after which 2 μL of JAK1 enzyme was finally added and reacted at 30° C. for 40 minutes. At this time, a tube without JAK1 enzyme was prepared for a blank and a tube without Compound 1 was prepared as a positive control group together (a final concentration of samples was 200 nM, 40 nM, 8 nM, 1.6 nM, and 0.32 nM).
as §1

TYK2 = TYK2 (Homo sapiens, UniProt P29597); assay: ADP-Glo Tyk2 kinase assay; type: biochemical; details: read-out: IC50, In vitro enzyme TYK2
TYK2, sequence (P29597 whole entry, species assumed): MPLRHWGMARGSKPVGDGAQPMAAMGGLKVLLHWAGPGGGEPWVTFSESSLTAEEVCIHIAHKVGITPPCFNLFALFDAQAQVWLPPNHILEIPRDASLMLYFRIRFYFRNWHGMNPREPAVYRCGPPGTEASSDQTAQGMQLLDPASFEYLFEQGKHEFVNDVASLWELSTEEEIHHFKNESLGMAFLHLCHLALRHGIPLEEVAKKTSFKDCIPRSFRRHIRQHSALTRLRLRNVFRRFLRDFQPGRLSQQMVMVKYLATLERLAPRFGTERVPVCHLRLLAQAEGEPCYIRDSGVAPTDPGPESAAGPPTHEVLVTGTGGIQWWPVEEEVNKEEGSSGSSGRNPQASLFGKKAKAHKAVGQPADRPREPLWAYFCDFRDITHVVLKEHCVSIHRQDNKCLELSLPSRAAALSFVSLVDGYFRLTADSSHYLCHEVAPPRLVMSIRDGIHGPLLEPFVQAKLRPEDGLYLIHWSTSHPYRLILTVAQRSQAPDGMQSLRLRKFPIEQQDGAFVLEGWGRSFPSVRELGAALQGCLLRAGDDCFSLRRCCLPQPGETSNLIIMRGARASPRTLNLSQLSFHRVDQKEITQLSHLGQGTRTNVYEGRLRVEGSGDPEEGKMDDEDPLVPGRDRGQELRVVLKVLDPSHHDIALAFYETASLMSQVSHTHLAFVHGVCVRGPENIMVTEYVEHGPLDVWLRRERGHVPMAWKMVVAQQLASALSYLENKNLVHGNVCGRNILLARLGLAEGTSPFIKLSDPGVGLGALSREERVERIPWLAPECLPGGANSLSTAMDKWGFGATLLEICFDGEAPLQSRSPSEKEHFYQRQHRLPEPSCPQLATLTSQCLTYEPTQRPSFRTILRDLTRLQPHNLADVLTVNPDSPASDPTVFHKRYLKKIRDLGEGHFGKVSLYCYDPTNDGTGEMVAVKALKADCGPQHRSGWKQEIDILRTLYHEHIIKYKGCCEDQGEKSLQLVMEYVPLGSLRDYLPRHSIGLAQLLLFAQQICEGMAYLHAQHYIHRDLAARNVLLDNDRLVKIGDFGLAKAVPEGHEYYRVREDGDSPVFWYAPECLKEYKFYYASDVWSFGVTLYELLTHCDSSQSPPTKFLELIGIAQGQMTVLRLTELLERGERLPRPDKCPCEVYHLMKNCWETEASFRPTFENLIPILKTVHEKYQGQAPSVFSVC
Description: 10 mM of Compound 1 was diluted in DMSO to prepare samples at five concentrations (5,000 nM, 500 nM, 50 nM, 5 nM, and 0.5 nM). 10 mM of ATP was diluted at 1/40 in 1× kinase buffer to make a preparation. 1 mg/mL of Poly (Glu4, Tyr1) peptide was used as a stock solution. 100 ng/μL of Tyk2 enzyme was diluted at ½ in 1× kinase buffer to make a preparation. 1 μL of ATP, 1 μL of Poly (Glu4, Tyr1) peptide, and 1 μL of Compound 1 prepared as above were mixed, after which 2 μL of Tyk2 enzyme was finally added and reacted at 30° C. for 40 minutes. At this time, a tube without […] enzyme was prepared for a blank and a tube without Compound 1 was prepared as a positive control group together (a final concentration of samples was 1,000 nM, 100 nM, 10 nM, 1 nM, and 0.1 nM).
as §1

[1] = tested on: DSS-induced animal model (C57BL/6J mice); assay: DSS-induced colitis model; type: in vivo; details: oral
Description: To induce colitis in C57BL/6J mice, drinking water was treated with 3% dextran sodium sulphate (DSS) and provided each morning for eight days, and a negative control group was provided with 0% DSS.
After mice were grouped into several groups (day O), the mice were orally dosed with 0.5% methylcellulose and Compound 1 obtained according to Preparation Example 1 as a test material at 9 a.m. and 5 p.m. every day from day 1 to day 7. Test animals were autopsied on day 8.
Disease activity index (DAI) was calculated as body weight, fecal […], and fecal blood score to represent the severity of the disease. Body weight and food intake were monitored and evaluated at the start of the study and every 24 hours, and fecal samples were collected on days 0, 3, 5, and 7 and analyzed according to Table 6 below.
After measuring the weight and length of the colon obtained by autopsy, the weight-to-length ratio was calculated.
On day 8, blood was drawn from the heart into a centrifuge tube containing EDTA-K2 anticoagulant. After centrifugation (7000 rpm, 10 minutes, 4° C.), plasma was separated, and KC and MIP-2 were measured by Meso Scale Discovery Kit.
The mRNA was extracted from a portion of large intestine tissues (same location for each animal) to analyze an expression level of MX2 and TNF-alpha in the tissues through qPCR.
The large intestine part fixed with 10% formalin was cut with paraffin and stained with hematoxylin-eosin. The criteria for histological changes in the colon followed Table 7 below.

JAK2, sequence (O60674 whole entry, species assumed): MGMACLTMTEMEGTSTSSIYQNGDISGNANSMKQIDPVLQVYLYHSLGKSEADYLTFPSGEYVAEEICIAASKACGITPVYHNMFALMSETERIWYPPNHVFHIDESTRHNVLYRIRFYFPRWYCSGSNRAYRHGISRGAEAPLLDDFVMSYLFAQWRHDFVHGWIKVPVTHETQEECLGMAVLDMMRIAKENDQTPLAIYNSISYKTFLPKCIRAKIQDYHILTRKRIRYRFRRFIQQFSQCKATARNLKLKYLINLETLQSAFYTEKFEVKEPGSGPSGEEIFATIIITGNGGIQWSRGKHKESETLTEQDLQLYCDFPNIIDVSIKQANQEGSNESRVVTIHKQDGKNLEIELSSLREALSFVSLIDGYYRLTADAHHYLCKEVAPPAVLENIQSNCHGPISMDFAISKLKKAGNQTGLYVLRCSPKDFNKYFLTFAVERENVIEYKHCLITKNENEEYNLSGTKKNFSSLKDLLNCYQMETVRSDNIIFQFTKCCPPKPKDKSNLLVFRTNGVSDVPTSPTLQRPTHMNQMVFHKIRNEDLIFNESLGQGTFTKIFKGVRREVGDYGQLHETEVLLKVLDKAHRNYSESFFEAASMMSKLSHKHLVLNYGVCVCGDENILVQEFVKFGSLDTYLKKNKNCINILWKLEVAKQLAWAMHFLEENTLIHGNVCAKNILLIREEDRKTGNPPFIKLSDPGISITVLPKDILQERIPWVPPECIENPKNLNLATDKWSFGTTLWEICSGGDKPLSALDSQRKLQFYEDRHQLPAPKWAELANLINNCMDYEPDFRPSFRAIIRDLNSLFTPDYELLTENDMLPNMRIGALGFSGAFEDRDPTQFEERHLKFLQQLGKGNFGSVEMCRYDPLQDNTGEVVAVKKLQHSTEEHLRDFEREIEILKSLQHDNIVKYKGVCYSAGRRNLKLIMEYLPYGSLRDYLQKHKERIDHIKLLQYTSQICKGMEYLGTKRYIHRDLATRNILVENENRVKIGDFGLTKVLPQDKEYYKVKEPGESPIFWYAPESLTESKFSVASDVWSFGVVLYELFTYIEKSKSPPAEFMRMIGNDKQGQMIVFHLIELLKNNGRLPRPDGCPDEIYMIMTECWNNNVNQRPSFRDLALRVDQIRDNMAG

C[C@@H]1CN(C(=O)CC#N)CC=C1c1cc(NC(=O)C2CC2)nc2[nH]ccc12 [Compound 1, (S)—N-(4-(1-(2-cyanoacetyl)-3-methyl-1,2,3,6-tetrahydropyridin-4-yl)-1H-pyrrolo[2,3-b]pyridin-6-yl)cyclopropanecarboxamide]
IC50 (JAK2): 68 nM | IC50 (JAK1; ADP-Glo kinase assay, read-out: IC50, In vitro enzyme JAK1): 3.8 nM | JAK1 inhibitory activity (JAK1; summary of Experimental Examples 1 to 3): very excellent JAK1 inhibitory activity | IC50 (TYK2): 22 nM | Disease activity index (DAI) ([1]; 90 mg/kg, FIG. 21): reduced to half that of the control group (vehicle) | Weight-to-length ratio of colon ([1]; FIG. 22): lower value compared to the control group (vehicle) | Histopathological score ([1]; FIG. 24): lowered | KC concentration in plasma ([1]; day 8, FIG. 23): decreased | MIP-2 concentration in plasma ([1]; day 8, FIG. 23): decreased | Expression level of MX2 in the colon ([1]; qPCR, FIG. 23): decreased | Expression level of TNF-alpha in the colon ([1]; qPCR, FIG. 23): decreased | Degree of increase in disease activity index (DAI) ([1]; twice daily day 1 to day 7, FIG. 21): lower than that of the control group (vehicle)
